Measurements as given in patent US8163909B2, “Substituted hydroxyethyl amine compounds as beta-secretase modulators and methods of use” (Amgen Inc., priority 2007, dated 2012).
Where two headings read alike, the source gives them in different places.

What was measured:
[1] = target: CYP3A4 (CYP3A) (Homo sapiens, UniProt P08684); test: in vitro; details: microsomes, pH 7.4;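 also: inhibition of CYP3A-mediated 1-hydroxymidazolam formation after 10 min incubation with NADPH, quantified by HPLC MS relative to metabolite produced without test compound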
Sequence of CYP3A4 (CYP3A) (P08684 2-503): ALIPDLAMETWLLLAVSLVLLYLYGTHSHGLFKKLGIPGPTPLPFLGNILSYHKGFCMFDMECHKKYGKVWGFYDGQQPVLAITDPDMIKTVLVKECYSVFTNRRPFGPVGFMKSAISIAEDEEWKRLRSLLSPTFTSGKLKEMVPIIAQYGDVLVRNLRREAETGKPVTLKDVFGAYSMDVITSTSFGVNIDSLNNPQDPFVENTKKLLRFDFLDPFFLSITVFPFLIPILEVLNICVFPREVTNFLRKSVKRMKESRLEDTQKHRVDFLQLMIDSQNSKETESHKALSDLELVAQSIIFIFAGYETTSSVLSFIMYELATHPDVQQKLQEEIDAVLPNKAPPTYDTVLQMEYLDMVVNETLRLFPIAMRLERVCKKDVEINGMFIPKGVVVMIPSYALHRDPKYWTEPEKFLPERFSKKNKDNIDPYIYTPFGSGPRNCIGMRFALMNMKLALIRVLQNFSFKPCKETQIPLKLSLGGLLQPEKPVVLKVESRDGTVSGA

[2] = tested on: Aβ40 in conditioned medium of cells stably expressing Amyloid Precursor Protein (APP); test: In vitro BACE cell-based assay (Aβ40 in conditioned medium, sandwich ELISA); details: Homo sapiens;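 also: compounds added as a dilution series, secreted peptide quantified by europium time-resolved fluorescence readout, potency fitted from percent of control versus compound concentration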
[3] = Microsomal stability assay, rat liver microsomes;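 also: rat liver microsomes (0.25 mg/mL) with about 1 µM compound plus 1 mM NADPH, pH 7.4, 37 °C for 30 min, parent left measured by LC-MS/MS against 0 min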
[4] = Microsomal stability assay, human liver microsomes;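 also: pooled human liver microsomes at 0.25 mg/mL with 1 µM compound and NADPH at 37 °C, pH 7.4, for 30 min, unchanged parent quantified by LC-MS/MS against the 0 min sample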
[5] = target: Beta Secretase enzyme (BACE) (Homo sapiens, UniProt P56817); test: In vitro enzymatic BACE FRET (fluorescence resonance energy transfer) assay; assay type: biochemical;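 also: fluorescence read after 1 h with 50 nM quenched peptide substrate spanning the BACE cleavage site, in pH 4.2 acetate buffer containing 10% DMSO and nonionic detergent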
Sequence of Beta Secretase enzyme (BACE) (P56817 46-501): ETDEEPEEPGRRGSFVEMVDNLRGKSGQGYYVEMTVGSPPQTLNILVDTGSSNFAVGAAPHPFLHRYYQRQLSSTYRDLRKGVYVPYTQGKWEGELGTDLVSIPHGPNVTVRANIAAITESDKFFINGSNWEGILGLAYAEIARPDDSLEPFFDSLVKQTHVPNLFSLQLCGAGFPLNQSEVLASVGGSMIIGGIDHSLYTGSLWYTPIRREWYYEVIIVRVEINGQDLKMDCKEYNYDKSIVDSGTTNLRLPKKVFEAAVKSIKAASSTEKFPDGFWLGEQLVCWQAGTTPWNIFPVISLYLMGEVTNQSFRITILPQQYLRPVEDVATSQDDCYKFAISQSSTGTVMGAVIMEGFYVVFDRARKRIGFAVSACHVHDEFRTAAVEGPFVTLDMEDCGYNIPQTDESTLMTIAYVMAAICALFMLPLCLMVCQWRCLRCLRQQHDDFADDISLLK

[6] = target: CYP2D6 (Homo sapiens, UniProt P10635); test: CYP2D6 inhibition assay (bufuralol, pooled human liver microsomes)
Sequence of CYP2D6 (P10635 whole entry): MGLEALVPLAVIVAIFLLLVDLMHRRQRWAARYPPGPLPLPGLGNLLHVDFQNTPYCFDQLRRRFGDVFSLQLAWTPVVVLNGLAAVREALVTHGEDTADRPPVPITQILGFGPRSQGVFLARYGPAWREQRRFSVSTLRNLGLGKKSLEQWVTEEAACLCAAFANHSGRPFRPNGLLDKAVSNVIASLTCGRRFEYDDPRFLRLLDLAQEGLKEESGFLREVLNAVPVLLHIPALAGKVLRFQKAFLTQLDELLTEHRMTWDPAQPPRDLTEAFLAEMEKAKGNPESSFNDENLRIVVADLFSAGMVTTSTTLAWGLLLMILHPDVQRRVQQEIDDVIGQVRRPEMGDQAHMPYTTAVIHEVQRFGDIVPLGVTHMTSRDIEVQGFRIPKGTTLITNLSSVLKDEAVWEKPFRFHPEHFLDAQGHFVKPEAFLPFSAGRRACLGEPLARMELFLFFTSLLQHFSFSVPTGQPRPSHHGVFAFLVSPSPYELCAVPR

[7] = HEK293, cell-based assay, HEK cells, IC50's in uM, read-out: HEK cell assay
[8] = BACE enzyme assay, IC50's in uM, read-out: BACE1 FRET assay
[9] = 2D6 IC50, CYP enzyme inhibition
[10] = HEK293, HEK cell-based assay IC50, read-out: HEK cell assay
[11] = BACE enzyme assay IC50, read-out: BACE1 FRET assay
[12] = 2D6 IC50 (uM), CYP2D6 inhibition
[13] = HEK293, HEK cells, read-out: HEK cell assay
[14] = BACE enzyme assay, read-out: BACE1 FRET assay
[15] = 2D6 IC50 (uM), CYP enzyme inhibition
[16] = HEK293, Table 2, HEK cells, read-out: HEK cell assay
[17] = Table 2, read-out: BACE1 FRET assay
[18] = HEK293, HEK cells, read-out: HEK cell assay (IC50)
[19] = read-out: BACE1 FRET assay (IC50)
[20] = HEK293, HEK cell-based assay, IC50's in uM, read-out: HEK cell assay

## COCC(=O)N[C@@H](Cc1cc(Br)cc(Br)c1)[C@H](O)CN[C@H]1CC2(CCC2)Oc2ncc(CC(C)(C)C)cc21 [compound 892]
[1]
  IC50: 100 nM
[2]; [7]
  IC50: 0.009 µM
[3]; rat liver microsomal data
  RLM: 274 µL/min/mg
[4]; human liver microsomal data
  HLM: 399 µL/min/mg
[5]; [8]
  IC50: 0.07 µM
[6]; [9]
  IC50: 3.9 µM

## CO[C@H](C)C(=O)N[C@@H](Cc1ccc2c(c1)OCO2)[C@H](O)CN[C@H]1CC2(CCC2)Oc2c1cc(CC(C)C)nc2-c1ccncc1 [compound 670]
[1]
  IC50: ≤ 30 nM
[2]; [10]
  IC50: 0.294 µM
[3]; rat liver microsomes
  RLM: 100 µL/min/mg
[4]; human liver microsomes
  HLM: 40 µL/min/mg
[5]; [11]
  IC50: 0.06 µM
[6]; [12]
  IC50: 0.8 µM

## COCC(=O)N[C@@H](Cc1cc(F)cc(F)c1)[C@H](O)CN[C@H]1CC2(CCC2)Oc2c(-c3ccncc3)cc(Cl)cc21 [compound 560]
[1]
  IC50: 200 nM
[2]; [13]
  IC50: 0.058 µM
[3]; rat liver microsomal data
  RLM: 829 µL/min/mg
[4]; human liver microsomal data
  HLM: 209 µL/min/mg
[5]; [14]
  IC50: 0.049 µM
[6]; [15]
  IC50: 0.4 µM

## COCC(=O)N[C@@H](Cc1cc(F)cc(F)c1)[C@H](O)CN[C@H]1CC2(CCC2)Oc2c1cc(CC(C)(C)C)cc2-n1ccnc1 [compound 475]
[1]
  IC50: 50 nM
[2]; [16]
  IC50: 0.008 µM
[3]; rat liver microsomal data
  RLM: 128.5 µL/min/mg
[4]; human liver microsomal data
  HLM: 26 µL/min/mg
[5]; [17]
  IC50: 0.018 µM
[6]; [9]
  IC50: 1.75 µM

## COCC(=O)N[C@@H](Cc1ccc(F)cc1)[C@H](O)CN[C@H]1CC2(CCC2)Oc2c1cc(CC(C)(C)C)nc2-c1nccs1 [compound 451]
[1]
  IC50: 600 nM
[2]; [16]
  IC50: 0.271 µM
[3]; rat liver microsomal data
  RLM: 682 µL/min/mg
[4]; human liver microsomal data
  HLM: 248 µL/min/mg
[5]; [17]
  IC50: 0.019 µM
[6]; [9]
  IC50: 9.4 µM

## COCC(=O)N[C@@H](Cc1cccc(F)c1)[C@H](O)CN[C@H]1CC2(CCC2)Oc2c(-c3cscn3)cc(CC(C)C)cc21 [compound 526]
[1]
  IC50: 600 nM
[2]; [13]
  IC50: 0.053 µM
[3]; rat liver microsomal data
  RLM: 503 µL/min/mg
[4]; human liver microsomal data
  HLM: 351 µL/min/mg
[5]; [14]
  IC50: 0.006 µM
[6]; [15]
  IC50: 7.3 µM

## CC(=O)N[C@@H](Cc1cc(F)cc(-c2ccncc2)c1)[C@H](O)CN[C@H]1CC2(CCC2)Oc2ncc(CC(C)(C)C)cc21 [compound 614]
[1]
  IC50: 160 nM
[2]; [18]
  IC50: 0.008 µM
[3]; rat liver microsomes
  RLM: 107 µL/min/mg
[4]; human liver microsomes
  HLM: 244 µL/min/mg
[5]; [19]
  IC50: 0.012 µM
[6]; 2D6 IC50, CYP2D6 inhibition
  IC50: 0.4 µM

## COCC(=O)N[C@@H](Cc1ccc(F)c(-c2ncc(C)s2)c1)[C@H](O)CN[C@H]1CC2(CCC2)Oc2ncc(CC(C)(C)C)cc21 [compound 729]
[1]
  IC50: 400 nM
[2]; [10]
  IC50: 0.291 µM
[3]; rat liver microsomes
  RLM: 399 µL/min/mg
[4]; human liver microsomes
  HLM: 371 µL/min/mg
[5]; [11]
  IC50: 0.048 µM
[6]; [12]
  IC50: 3.9 µM

## CC(C)(C)Cc1cnc2c(c1)[C@@H](NC[C@@H](O)[C@H](Cc1ccc3c(c1)OCO3)NC(=O)C1CCO1)CC1(CCC1)O2 (stereo partly drawn) [compound 503, N-((1S,2R)-1-(1,3-benzodioxol-5-ylmethyl)-3-(((4′S)-6′-(2,2-dimethylpropyl)-3′,4′-dihydrospiro[cyclobutane-1,2′-pyrano[2,3-b]pyridin]-4′-yl)amino)-2-hydroxypropyl)-2-oxetanecarboxamide]
[1]
  IC50: 200 nM
[2]; [13]
  IC50: 0.017 µM
[3]; rat liver microsomal data
  RLM: 130 µL/min/mg
[4]; human liver microsomal data
  HLM: 23 µL/min/mg
[5]; [14]
  IC50: 0.021 µM
[6]; [15]
  IC50: 3.3 µM

## CC(=O)N[C@@H](Cc1cc(F)cc(-c2ccncc2)c1)[C@H](O)CN[C@H]1CC2(CCC2)Oc2ccc(CC(C)(C)C)cc21 [Example 433, N-((2S,3R)-4-((S)-2,2-spirocyclobutyl-6-neopentyl-3,4-dihydro-2H-chromen-4-ylamino)-1-(3-fluoro-5-(pyridin-4-yl)phenyl)-3-hydroxybutan-2-yl)acetamide]
[1]
  IC50: 1100 nM
[2]; [18]
  IC50: 0.038 µM
[3]; rat liver microsomes
  RLM: 590 µL/min/mg
[4]; human liver microsomes
  HLM: 492 µL/min/mg
[5]; [19]
  IC50: 0.021 µM
[6]; 2D6 IC50, CYP2D6 inhibition
  IC50: 0.2 µM

## COCC(=O)N[C@@H](Cc1cccc([C@H]2CCCO2)c1)[C@H](O)CN[C@H]1CC2(CCC2)Oc2ncc(CC(C)(C)C)cc21 [compound 916]
[1]
  IC50: 400 nM
[2]; [7]
  IC50: 2.25 µM
[3]; rat liver microsomal data
  RLM: 644 µL/min/mg
[4]; human liver microsomal data
  HLM: 399 µL/min/mg
[5]; [8]
  IC50: 9.5 µM
[6]; [9]
  IC50: 8.1 µM

## CO[C@H](C)C(=O)N[C@@H](Cc1ccc(F)c(F)c1)[C@H](O)CN[C@H]1CC(C)(C)Oc2ncc(CC(C)(C)C)cc21 [compound 675]
[1]
  IC50: 2000 nM
[2]; [10]
  IC50: 0.013 µM
[3]; rat liver microsomes
  RLM: 411 µL/min/mg
[4]; human liver microsomes
  HLM: 543 µL/min/mg
[5]; [11]
  IC50: 0.009 µM
[6]; [12]
  IC50: 21.8 µM

## CC#Cc1cccc(C[C@H](NC(=O)COC)[C@H](O)CN[C@H]2CC3(CCC3)Oc3ncc(CC(C)C)cc32)c1 [compound 802]
[1]
  IC50: 100 nM
[2]; [20]
  IC50: 0.032 µM
[3]; rat liver microsomal data
  RLM: 191 µL/min/mg
[4]; human liver microsomal data
  HLM: 60.5 µL/min/mg
[5]; [8]
  IC50: 0.005 µM
[6]; [15]
  IC50: 2.15 µM

## COCC(=O)N[C@@H](Cc1ccc(-c2nccs2)cc1)[C@H](O)CN[C@H]1CC2(CCC2)Oc2ncc(CC(C)C)cc21 [Example 434, N-((2S,3R)-3-hydroxy-4-((S)-6-isobutyl-2,2-spirocyclobutyl-3,4-dihydro-2H-pyrano[2,3-b]pyridin-4-ylamino)-1-(4-(thiazol-2-yl)phenyl)butan-2-yl)-2-methoxyacetamide]
[1]
  IC50: 200 nM
[2]; [20]
  IC50: 0.273 µM
[3]; rat liver microsomal data
  RLM: 60 µL/min/mg
[4]; human liver microsomal data
  HLM: 80 µL/min/mg
[5]; [8]
  IC50: 0.075 µM
[6]; [15]
  IC50: 1.3 µM

## CO[C@H](C)C(=O)N[C@@H](Cc1cc(F)cc(-c2nccs2)c1)[C@H](O)CN[C@H]1CC2(CCC2)Oc2ncc(C#CC3CC3)cc21 [compound 880]
[1]
  IC50: 300 nM
[2]; [7]
  IC50: 0.063 µM
[3]; rat liver microsomal data
  RLM: 107 µL/min/mg
[4]; human liver microsomal data
  HLM: 71 µL/min/mg
[5]; [8]
  IC50: 21 µM
[6]; [9]
  IC50: 0.3 µM

## C#Cc1cccc(C[C@H](NC(=O)COC)[C@H](O)CN[C@H]2C[C@@]3(CCOC3)Oc3ncc(CC(C)(C)C)cc32)c1 [compound 825, N-((1S,2R)-3-(((3S,4′S)-6′-(2,2-dimethylpropyl)-3′,4,4′,5-tetrahydrospiro[furan-3,2′-pyrano[2,3-b]pyridin]-4′-yl)amino)-1-(3-ethynylbenzyl)-2-hydroxypropyl)-2-methoxyacetamide]
[1]
  IC50: 100 nM
[2]; [20]
  IC50: 0.009 µM
[3]; rat liver microsomal data
  RLM: 85 µL/min/mg
[4]; human liver microsomal data
  HLM: 17 µL/min/mg
[5]; [8]
  IC50: 0.005 µM
[6]; [15]
  IC50: 7.3 µM

## COC(OC)C(=O)N[C@@H](Cc1cc(F)cc(-c2nccs2)c1)[C@H](O)CN[C@H]1CC2(CCC2)Oc2ncc(CC(C)(C)C)cc21 [compound 871]
[1]
  IC50: 200 nM
[2]; [7]
  IC50: 0.01 µM
[3]; rat liver microsomal data
  RLM: 73 µL/min/mg
[4]; human liver microsomal data
  HLM: 59 µL/min/mg
[5]; [8]
  IC50: 0.007 µM
[6]; [9]
  IC50: 0.7 µM

## COCC(=O)N[C@@H](Cc1cncs1)[C@H](O)CN[C@H]1CC2(CCC2)Oc2c(-c3ccncc3)cc(CC(C)(C)C)cc21 [compound 633]
[1]
  IC50: 100 nM
[2]; [18]
  IC50: 0.011 µM
[3]; rat liver microsomes
  RLM: 153 µL/min/mg
[4]; human liver microsomes
  HLM: 53 µL/min/mg
[5]; [19]
  IC50: 0.021 µM
[6]; 2D6 IC50, CYP2D6 inhibition
  IC50: 3 µM

## COCC(=O)N[C@@H](Cc1cccc(F)c1)[C@H](O)CN[C@H]1CC2(CCC2)Oc2c1cc(C=C(C)C)cc2-n1ccnc1 [compound 589]
[1]
  IC50: 200 nM
[2]; [18]
  IC50: 0.105 µM
[3]; rat liver microsomes
  RLM: 217 µL/min/mg
[4]; human liver microsomes
  HLM: 27 µL/min/mg
[5]; [19]
  IC50: 0.257 µM
[6]; 2D6 IC50, CYP2D6 inhibition
  IC50: 0.2 µM

## COCC(=O)N[C@@H](Cc1ccc2c(c1)OCO2)[C@H](O)CN[C@H]1CC2(CCC2)Oc2c1cc(CC(C)C)nc2-c1ccncc1 [compound 669]
[1]
  IC50: ≤ 30 nM
[2]; [10]
  IC50: 0.087 µM
[3]; rat liver microsomes
  RLM: 77 µL/min/mg
[4]; human liver microsomes
  HLM: 45 µL/min/mg
[5]; [11]
  IC50: 0.034 µM
[6]; [12]
  IC50: 0.3 µM
